Experiments:
Assay type in all cases: in vivo
[1] = system: Erysiphe graminis f. sp. tritici; experiment: Test A: preventive spray on wheat seedlings, wheat powdery mildew, disease rating; conditions: wheat seedlings sprayed to run-off, inoculated the following day with Erysiphe graminis f. sp. tritici, rated after 7 days at 20° C.; test concentration not given
Method in brief: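 Preventive test: Erysiphe graminis f. sp. tritici spore dust applied one day after run-off spraying of seedlings with acetone/water/surfactant suspension, 200 ppm equating to 500 g/ha. Plants held 7 days at 20 °C; ratings give % disease control versus controls, 100 full, 0 none.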

[2] = system: Puccinia recondita; experiment: Test B: preventive spray on wheat seedlings, wheat leaf rust, disease rating; conditions: wheat seedlings sprayed to run-off, inoculated the following day with Puccinia recondita, 24 h saturated atmosphere then 6 days at 20° C.; test concentration not given
Method in brief: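 Preventive test: seedlings inoculated with Puccinia recondita one day after run-off spraying with test suspension (acetone/water, 250 ppm Trem 014; 200 ppm equals 500 g/ha). Rating after 24 h at 20° C in saturation plus 6 days in 20° C growth chamber; 0–100 scale versus controls.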

[3] = system: Septoria nodorum; experiment: Test C: preventive spray on wheat seedlings, Septoria glume blotch, disease rating; conditions: wheat seedlings sprayed to run-off, inoculated the following day with Septoria nodorum, 48 h saturated atmosphere then 9 days at 20° C.; test concentration not given
Method in brief: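 Preventive test: one day after spraying (to run-off; 200 ppm ≈ 500 g/ha, in acetone/water with 250 ppm surfactant), seedlings received a S. nodorum spore suspension. After 48 h in saturated air and 9 days in a growth chamber, both at 20° C., % disease control versus controls was scored.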

SMILES	Test A disease control rating (100 = 100% disease control, 0 = no disease control relative to the controls) [1] [%]	Test B disease control rating (100 = 100% disease control, 0 = no disease control relative to the controls) [2] [%]	Test C disease control rating (100 = 100% disease control, 0 = no disease control relative to the controls) [3] [%]
CCN(C)C=Nc1cc(Cl)c(OC(C)CCC(C)C)cc1C (stereo not drawn) [compound 198]	100	100	100
CC(=Nc1cc(C)c(OC(C)CCC(C)C)cc1C)N(C)C (stereo not drawn) [compound 102]	21	95	89
CCN(C)C=Nc1cc(C)c(OCCCC(C)(C)C)cc1C [compound 199]	100	100	100
CC(C)=CCCC(C)=CCOc1cc(C)c(N=CN(C)C)cc1C [Compound 2]	95	100	36
CCN(C)C=Nc1cc(C)c(OCCCC(C)C)c(Cl)c1C [compound 200]	100	100	100
Cc1cc(OCCCCC(C)(C)C#N)c(C)cc1N=CN(C)C [Compound 47]	29	99	80
CCCCCCCCOc1cc(C)c(N=CN(C)C)cc1C [Compound 22]	98	100	88
Cc1cc(NCCC(C)CC(C)(C)C)c(C)cc1N=CN(C)C (stereo not drawn) [compound 147]	0	0	53
CCCN(C)C=Nc1cc(Cl)c(OCCC[Si](C)(C)C)cc1C [compound 58]	100	100	100
CC(C)=CCOc1cc(C)c(N=CN(C)C)cc1C [Compound 1, N′-[2,5-Dimethyl-4-[(3-methyl-2-butenyl)-oxy]phenyl]-N,N-dimethylmethanimidamide]	32	100	92
Cc1cc(OCCCC(C)(Cl)C(C)C)c(C)cc1N=CN(C)C (stereo not drawn) [Compound 46]	97	100	97
Cc1cc(OCCC[Si](C)(C)C)c(C)cc1N=CN(C)C [Compound 26, N′-[2,5-Dimethyl-4-[3-(trimethylsilyl)propoxy]phenyl]-N,N-dimethylmethanimidamide]	98	100	100
CCN(C)C(=S)Nc1cc(C)c(OCCCC(C)C)c(Cl)c1C [compound 137]	100	100	84
CCCCCC(CCCCC)Oc1cc(C)c(N=C(C)N(C)C)cc1C [compound 99]	0	9	0
CC(=Nc1cc(Cl)c(OCCCC(C)C)cc1C)N(C)C [compound 110]	42	97	99
CCN(C)C=Nc1cc(C)c(OCCCC(C)(C)C)c(Cl)c1C [compound 201]	100	100	100
Cc1cc(NCCCC(C)C)c(C)cc1N=CN(C)C [compound 154]	0	0	47
CCCC(CCC(C)C)Oc1cc(C)c(N=C(C)N(C)C)cc1C (stereo not drawn) [compound 97]	0	45	85
Cc1cc(OCCCC(C)(C)C)c(Cl)cc1N=CN(C)C [compound 176]	43	99	100
CC(=Nc1cc(C)c(OC(CCC(C)C)CCC(C)C)cc1C)N(C)C [compound 103]	31	0	0
Cc1cc(NC(=O)NCC(C)C)c(C)cc1N=CN(C)C [compound 189]	0	9	0
C=CCN(C)C=Nc1cc(F)c(OCCC[Si](C)(C)C)cc1C [compound 64]	100	100	100
CCC[Si](C)(C)CCCOc1cc(C)c(N=CN(C)C)cc1C [Compound 52]	100	100	99
CCN(C)C(=S)Nc1cc(Cl)c(OCCCC(C)C)c(Cl)c1C [compound 118]	99	100	78
Cc1cc(OCCOC(C)(C)C)c(C)cc1NC(=S)N(C)C [compound 165]	0	28	0

From US20050182025A1, “Amidinylphenyl compounds and their use as fungicides” (priority 2002, published 2005)
